Results reported in US20150132747A1, “Treatment of Neurodegeneration and Neuroinflammation” (BIOGEN IDEC MA INC., priority 2009, published 2015).
Structures can show the parent of a compound that is named as a salt.

How the values were obtained:
[1] = system: rat EAE (MOG/IFA immunized Brown Norway rats); experiment: Rat EAE model, clinical score; format: in vivo; conditions: FIG. 1A
Description: Female Brown Norway rats (Charles River Laboratories) were immunized intradermally at the base of the tail with MOG 1-125 100 ug/rat in IFA at day 0. Day 3 DMF (BG00012) qd 5, 25, 50, 100, 200 mg/kg delivered orally as a suspension in 0.8% HPMC. N=6 per group. Scoring 0=no disease, 1=tail paralysis, 2=hind limb weakness, 3=hind limb paralysis, 4=hind limb paralysis and forelimb weakness, 5=moribund or dead. Experimental in vivo procedures were performed in accordance with Institutional Animal Committee guidelines crEAE was induced by intradermal MOG/IFA immunization in Brown Norway rats. BG00012 was administered orally at a daily interval beginning three days after immunization. […] For the 100 mg/kg treatment group, average disease score at day 28 was 0.71 (n=6, SD=1.17) compared to 2.29 (n=6, SD=1.29) for the vehicle group.

[2] = system: rat spinal cords (EAE); experiment: Histology and morphometry of lumbar spinal cord sections of EAE rats (GFAP, IBA-1, Luxol Fast Blue); format: in vivo
Description: Lumbar spinal cord sections were prepared as FFPE sections for immunohistochemistry and processed on DAKO autostainer using GFAP antibody (DAKO), IBA-1 (Wako), CD3 (DAKO). Aperio Spectrum Color Deconvolution software was used for morphometric analysis. […] Panels (a) and (b) are from a rat treated with vehicle alone at 5× and 20× magnification, respectively, while panels (c) and (d) are from a rat treated with 100 mg/kg DMF, shown at 5× and 20× magnification, respectively. […] Morphometry analysis of EAE spinal cords was performed with Aperio software. Histological alterations were quantified with Aperio Image Scope software v10.1. The Color Deconvolution algorithm was used to select intensity thresholds either for brown DAB staining (GFAP and IBA-1 Immunostains) or for bright turquoise blue staining (Luxol Fast Blue). Positive staining was determined by the percent of strong positive stained pixels for each intensity threshold. Three lumbar spinal cord sections were quantitated per rat and the values for percent strong positive pixels were averaged for the final intensity value.

[3] = system: primary rat astrocytes; experiment: Quantitative PCR of gene expression in primary cultured astrocytes, with or without LPS; format: cell-based
Description: Rat astrocytes from cortex, hippocampus and striatum (Lonza clontech) were cultured as described by manufacturers protocol. Limiting dilutions of DMF in DMSO were added to cultures for 6 or 24 hours and stimulated with E. Coli LPS (Sigma). RNA was prepared using QIAgen Rneasy method. […] It is also apparent from the data that NQO1 is induced at a higher level by exposure to DMF for 24 hrs compared to induction by a 6 hour exposure. Direct effects of BG00012 on specific astrocytic and microglial cells were tested in vitro using primary rat astrocytes and RAW264.7 macrophage cells.

[4] = system: primary astrocytes; experiment: Gene expression profiling of LPS stimulated primary astrocytes; format: cell-based, rat; conditions: LPS 0, 10, 100 ng/ml; DMF 0, 3, 10, 30 μM, FIG. 5
Description: Primary astrocytes were treated with LPS at 0, 10, and 100 ng/ml, as indicated, and also treated with DMF at 0, 3, 10, or 30 μM as indicated. The magnitude of expression of each gene under each condition was scaled from 0 to 1, so that differences in color represent changes in expression of each gene as the conditions varied. The darkest green color represents no detectable expression (0), while the brightest red color represents the highest expression measured for that gene (1). […] The induced expression of many of the markers was suppressed by DMF treatment.
Direct effects of BG00012 on specific astrocytic and microglial cells were tested in vitro using primary rat astrocytes and RAW264.7 macrophage cells.

[5] = system: Nrf2; experiment: Nrf2 Western blotting, primary rat astrocytes; format: cell-based; conditions: total cell lysates, GAPDH control, FIG. 9
Description: (§1) Total cell lysates were prepared from the astrocyte cultures treated as indicated above. Nrf2 was detected by Western blotting. GAPDH was included as a housekeeping protein control.

[6] = system: Nrf2; experiment: Nrf2 Western blotting, primary human astrocytes; format: cell-based; conditions: total cell lysates, GAPDH control, FIG. 9
Description: as §1

[7] = system: primary rat astrocytes; experiment: Global gene expression analysis (Affymetrix GeneChip) in astrocytes treated with DMF; format: cell-based; conditions: p<10^−7 versus untreated astrocytes, FIG. 10
Description: Global analysis of gene expression in astrocytes treated with DMF was performed using the Affymetrix GeneChip technology. […] The resulting gene list was annotated using the Ingenuity IPA database. […] Specific genes involved in cytoprotection and glutathione metabolism, identified in this assay, include, but are not limited to, Gsta2, Gsta3, Gclc, Ggt1, Txnrd1, Srxn1, Sqstm1, and Nqo1.

[8] = system: human spinal cord astrocytes; experiment: Glutathione, metabolic activity and viability of cultured human spinal cord astrocytes; format: cell-based; conditions: 24 hr MMF titration, FIG. 6C
Description: Primary cultures of human spinal cord astrocytes were treated for 24 hr with a titration of MMF or DMSO as a diluent control. Following 24 hr incubation with compound, cells were washed 1× with growth media and incubated with the cell-permeant substrate monochlorobimane. When bound to glutathione this substrate increases fluorescence. […] FIG. 6A. Similar MMF treated cells were also incubated with the cell permeant substrate resazurin, which increases fluorescence upon reduction to resorufin by cellular redox mechanisms and is used as a measure of cellular metabolic activity (CellTiter-Blue assay). […] FIG. 6B. To ensure the increases in glutathione and metabolic activity were not simply due to cellular proliferation in response to MMF treatment, parallel dishes of cells were incubated with calcein AM. Cellular esterases cleave this molecule to generate a fluorescent metabolite, which provides a measure of cell viability and relative total cell numbers. […] FIG. 6C.

[9] = system: human spinal cord astrocytes; experiment: H2O2-induced Ca++ mobilization in human spinal cord astrocytes (Calcium4 dye); format: cell-based; conditions: Astrocyte, 24 hr MMF, 50 mM H2O2, FIG. 7C, read-out: EC50, protection against H2O2-induced Ca++ mobilization (non-linear regression)
Description: In another experiment, primary cultures of human spinal cord astrocytes were treated for 24 hr with a titration of MMF or DMSO as a diluent control. Following 24 hr incubation with compound, cells were washed 1× with HBSS and incubated with Calcium4 (Molecular Devices) loading dye. This dye permeates into cells and increases fluorescence upon binding of free intracellular Ca^++. Cells were then challenged with 50 mM H2O2 and monitored for changes in fluorescence. […] FIG. 7C.

[10] = system: human spinal cord astrocytes; experiment: H2O2 challenge of human spinal cord astrocytes: viability, metabolism, ATP; format: cell-based; conditions: FIG. 8C
Description: In another experiment, primary cultures of human spinal cord astrocytes were treated for 24 hr with a titration of MMF or DMSO as a diluent control. Following 24 hr incubation with compound, cells were washed 1× with HBSS and challenged with […] H2O2 for two hours, then washed in normal growth media, then incubated for an additional 24 hours.

EC50 [9] [µM] | SMILES | EAE disease ([1]; 200 mg/kg) | EAE symptoms ([1]; various doses (5-200 mg/kg qd oral from day 3)) | activated astrocytes in grey matter of spinal cords (GFAP antibody) ([2]; 100 mg/kg DMF versus vehicle alone, FIG. 3) | myelin loss during EAE in rat spinal cords (Luxol Fast Blue morphometry) ([2]; FIG. 12) | LPS induced TNF expression (quantitative PCR) ([3]; DMF 24 hours, LPS 0, 10, 30 ng/ml 4 hrs prior to harvest, FIG. 4B) | GFAP expression (quantitative PCR) ([3]; DMF for 6 hrs and 24 hrs, FIG. 4A) | NQO1 expression (quantitative PCR) ([3]; DMF for 6 hrs and 24 hrs, FIG. 4C) | LPS-induced expression of Ccl20, Ccl3, Ccl4, Cxcl1, Cxcl10, Cxcl2, Cxcl3, Cxcl6, IL1a, II1b, Tnf, Ifit3, Zc3h12a [4] | levels of Nrf2 (Western blotting), primary rat astrocytes [5] | levels of Nrf2 (Western blotting), primary human astrocytes [6] | expression of Nrf2 target genes (incl. glutathione metabolism genes) [7] | cell viability and relative total cell numbers (calcein AM) [8] | cellular ATP levels at the highest concentration of MMF [10]
 | COC(=O)/C=C/C(=O)OC [DMF, dimethyl fumarate] | completely abrogated disease | reduced EAE symptoms in a dose-dependent manner | fewer activated astrocytes | diminishes myelin loss | repressed by DMF in a dose dependent manner | inhibits GFAP expression in a concentration dependent manner | induces NQO1 expression in a concentration dependent manner | strongly suppressed | increase levels of Nrf2 | increase levels of Nrf2 | activates expression of Nrf2 target genes |  | 
5.4 | COC(=O)/C=C/C(=O)O [MMF, monomethyl fumarate] |  |  |  |  |  |  |  |  |  |  |  | No substantial concentration-dependent changes | appeared to reduce cellular ATP levels
